These are literature values, as cited in patent publication US7576133B2, “Methods and compositions for nasal administration of modafinil” (priority 2002, dated 2009).

`NC(=O)C[S+]([O-])C(c1ccccc1)c1ccccc1` (racemic) [Modafinil, 2-[(diphenylmethyl)sulfinyl] acetamide]: the “solubility in lower alcohols” value (lower alcohols) is listed as “slightly soluble”. For the same molecule, under “water”, the solubility in water result is listed as “practically insoluble”.
